Values belong to the substance of their own block, whether it stands above or below them. Positions of bridges follow the written chain, without caps; N, C: chain ends. *: point of attachment. Biotin = O=C1N[C@H]2[C@H](CS[C@H]2CCCCC(=O)*)N1
Key:
[1] = tested on: bovine aortic endothelial cells (BAEC); assay: Degree of binding of 125I-LLTGF-β to bovine aortic endothelial cells (radioactivity); assay type: cell-based; settings: test compound 100 μg/ml
[2] = tested on: bovine capillary endothelial cells (BCEC); assay: Degree of binding of 125I-LLTGF-β to bovine capillary endothelial cells (radioactivity); assay type: cell-based; settings: for Radioactivity (cpm), n = 4: BCEC, 2 ng/ml 125I-LLTGF-β, 4° C. 3 hours
Protocol: LLTGF-β isolated and purified from human platelets by the method of Okada, et al. [Journal of Biochemistry, 106, 304 (1989)] was ^125I-labeled according to the chloramine T method [Molecular & Cellular Biology, 2, 599 (1982)] in the following manner.
To 2 μg of LLTGF-β were added 25 μl of 1 M K-phosphate buffer (pH 7.5), 37 MBq of Na-^125I (DuPont NEN) and 10 μl of chloramine-T (0.5 mg/100 μl in 0.05 MK-phos. buffer, Wako Pure Chemical Industries, Ltd.), followed by stirring at room temperature for 40 seconds. After 15 μl of Na2S2O5 (1 mg/100 μl in 0.05 M K-phos. buffer) was added, the mixture was stirred at room temperature for 5 seconds, followed by addition of 100 μl of an aqueous solution of tyrosine (1 mg/ml). The reaction mixture was applied to a Sephadex G25 column and the eluate was taken in 500 μl fractions. Each fraction was subjected to measurement of radioactivity using a γ-counter (ARC-2000, Aloka Co., Ltd.). The fractions containing labeled protein were selected for use in the experiment.
The cells to be used in the experiment were obtained according to the method of Sato, et al. [Journal of Cell Biology, 123, 1249 (1993)]. Bovine vascular smooth muscle cells (BSMC) and porcine vascular smooth muscle cells (PSMC) were isolated from bovine aorta and porcine aorta, respectively, and cultured by the explant method [Journal of Cell Biology, 50, 172 (1971)]. Bovine capillary endothelial cells (BCEC) were isolated from bovine adrenal capillary and cultured. Bovine aortic endothelial cells (BAEC) were isolated from bovine aortic and cultured.
The following procedure was carried out according to the method of Sato, et al. [Journal of Cell Biology, 123, 1249 (1993)].
BSMC, PSMC and BCEC isolated and cultured in the above-described manner were respectively put into 35 mm dishes in an amount of 4×10^4 cells/dish. On the next day, the medium was replaced by Dulbecco's Modified Eagle's Medium (DMEM, Nissui Pharmaceutical Co.) containing 0.1% bovine serum albumin (BSA), followed by incubation for 5 hours. After the cells were washed with 2 ml of phosphate-buffered saline containing 0.1 g/l each of MgCl2.6H2O and CaCl2 [hereinafter sometimes referred to as PBS(+); phosphate-buffered saline containing neither MgCl2.6H2O nor CaCl2 is referred to as PBS (−)], the medium was replaced by 1 ml of ice-cold DMEM containing 0.1% BSA, 2 ng/ml ^125I-LLTGF-β and a test compound, followed by incubation at 4° C. for 3 hours. […] After being washed three times with 2 ml of ice-cold PBS(+), the cells were lysed with 900 μl of 0.5% Triton X-100 (room temperature, 0.5-1 hour), and 800 μl of the lysate was subjected to measurement of radioactivity using a γ-counter.

active TGF-β = assay: Determination of active TGF-β by luciferase assay (BCEC culture supernatant on MLEC carrying PAI-1 promoter luciferase); assay type: cell-based, bovine; settings: BCEC incubated with test compound 24 hours
Protocol: The amount of active TGF-β was determined by measuring the luminescence of mink lung epithelial cells (MLEC) carrying the luciferase gene introduced downstream of the PAI-1 promoter by luciferase assay system (Promega) according to the method of Abe, et al. [Analytical Biochemistry, 216, 276 (1994)] as described below.
BCEC were cultured in a 24-well plate to make a confluent layer and then the medium was replaced by DMEM containing 0.1% BSA. After 6 hours, the cells were scraped reticulately with a comb and the remaining cells were washed with PBS (−) , followed by incubation in DMEM containing 0.1% BSA and a test compound for 24 hours. The resulting culture supernatant was taken as a sample. Six hours before the sampling of this culture supernatant, the above-mentioned MLEC were put into wells of a 96-well plate in an amount of 2.8×10^4 cells/well. After the cells were cultured in DMEM containing 10% fetal calf serum (FCS) for 6 hours, the medium was replaced by the above culture supernatant sample, followed by incubation for 16 hours. The cells were washed twice with PBS (−) and then subjected to measurement of active TGF-β concentration by lucuferase assay system.

[3] = tested on: bovine capillary endothelial cells (BCEC); assay: Migration of bovine vascular endothelial cells (release of active TGF-β from latent TGF-β); assay type: cell-based; settings: 24 hours, 10 /μg/ml
Protocol: The following procedure was carried out according to the method of Sato, et al. [Journal of Cell Biology, 123, 1249 (1993)]. were scraped with a razor, the remaining cells were washed with PBS (−), followed by incubation in DMEM containing 0.1% BSA and a test compound. After 24 hours, the number of the cells which migrated in four fileds of a microscope (IX70, Olympus) was counted for each dish. The test compound was added in the same manner as in Test Example 1. The migration of cells was inhibited and the release of active TGF-β from latent TGF-β was promoted by Compounds 3 and 5 to 9 at a concentration of 50 μg/ml.

[4] = test compound 100 μg/ml, vehicle 416.8 ± 89.6
[5] = concentrations indicated in FIG. 6

Substance: Biotinyl-Gly-Arg-Arg-Leu-Lys-Leu-Lys-Val-Glu-Gln-His-Val-Glu-Leu-Tyr-Gln-Lys-Tyr-Ser-Asn-Asn-Ser-Trp-Arg-OH (Biotin-GRRLKLKVEQHVELYQKYSNNSWR-OH; SMILES CC(C)C[C@H](NC(=O)[C@H](CCCNC(=N)N)NC(=O)[C@H](CCCNC(=N)N)NC(=O)CNC(=O)CCCC[C@@H]1SC[C@@H]2NC(=O)N[C@@H]21)C(=O)N[C@@H](CCCCN)C(=O)N[C@@H](CC(C)C)C(=O)N[C@@H](CCCCN)C(=O)N[C@H](C(=O)N[C@@H](CCC(=O)O)C(=O)N[C@@H](CCC(N)=O)C(=O)N[C@@H](Cc1c[nH]cn1)C(=O)N[C@H](C(=O)N[C@@H](CCC(=O)O)C(=O)N[C@@H](CC(C)C)C(=O)N[C@@H](Cc1ccc(O)cc1)C(=O)N[C@@H](CCC(N)=O)C(=O)N[C@@H](CCCCN)C(=O)N[C@@H](Cc1ccc(O)cc1)C(=O)N[C@@H](CO)C(=O)N[C@@H](CC(N)=O)C(=O)N[C@@H](CC(N)=O)C(=O)N[C@@H](CO)C(=O)N[C@@H](Cc1c[nH]c2ccccc12)C(=O)N[C@@H](CCCNC(=N)N)C(=O)O)C(C)C)C(C)C) [Compound 16]
Radioactivity (cpm), n = 4 ([1]; Table 6, vehicle 792.0 ± 107.0): 10495.0 ± 803.0 cpm

Substance: Biotinyl-cyclo(Cys-Val-Leu-Leu-Ser-Arg-Ala-Glu-Leu-Arg-Leu-Leu-Arg-Arg-Leu-Lys-Leu-Lys-Cys)-OH (Biotin-CVLLSRAELRLLRRLKLKC-OH; disulfide 1-19; SMILES CC(C)C[C@@H]1NC(=O)[C@H](CCC(=O)O)NC(=O)[C@H](C)NC(=O)[C@H](CCCNC(=N)N)NC(=O)[C@H](CO)NC(=O)[C@H](CC(C)C)NC(=O)[C@H](CC(C)C)NC(=O)[C@H](C(C)C)NC(=O)[C@@H](NC(=O)CCCC[C@@H]2SC[C@@H]3NC(=O)N[C@@H]32)CSSC[C@@H](C(=O)O)NC(=O)[C@H](CCCCN)NC(=O)[C@H](CC(C)C)NC(=O)[C@H](CCCCN)NC(=O)[C@H](CC(C)C)NC(=O)[C@H](CCCNC(=N)N)NC(=O)[C@H](CCCNC(=N)N)NC(=O)[C@H](CC(C)C)NC(=O)[C@H](CC(C)C)NC(=O)[C@H](CCCNC(=N)N)NC1=O) [Compound 13]
Radioactivity (cpm), n = 4 ([1]; Table 5, vehicle 1076.5 ± 12.0): 4704.0 ± 939.9 cpm

Substance: H-Leu-Lys-Leu-Lys-Val-Glu-Gln-His-Val-Glu-Leu-Tyr-Gln-Lys-Tyr-Ser-Asn-Asn-Ser-Trp-Arg-OH (H-LKLKVEQHVELYQKYSNNSWR-OH) [Compound 15]
Radioactivity (cpm), n = 4 [2, 4]: 5621.1 ± 889.2 cpm

Substance: H-Leu-Ser-Thr-Cys-Lys-Thr-Ile-Asp-Met-Glu-Leu-Val-Lys-Arg-Lys-Arg-OH (H-LSTCKTIDMELVKRKR-OH) [Compound 14]
Radioactivity (cpm), n = 4 [2, 4]: 3369.9 ± 166.8 cpm

Substance: H-Leu-Ser-Thr-Ser-Lys-Thr-Ile-Asp-Met-Glu-Leu-Val-Lys-Arg-Lys-Arg-Ile-Glu-Ala-Ile-Arg-Gly-Cys-OH (H-LSTSKTIDMELVKRKRIEAIRGC-OH) [Compound 3]
release of active TGF-β (luciferase assay) (active TGF-β; [5]): Active TGF-β was released

release of active TGF-β (luciferase assay) (active TGF-β; concentration of 10 μg/ml): remarkable effect | release of active TGF-β (luciferase assay) (active TGF-β; [5]): Active TGF-β was released
Substance: H-cyclo(Cys-Leu-Ser-Thr-Ser-Lys-Thr-Ile-Asp-Met-Glu-Leu-Val-Lys-Arg-Lys-Arg-Ile-Glu-Ala-Ile-Arg-Gly-Cys)-OH (H-CLSTSKTIDMELVKRKRIEAIRGC-OH; disulfide 1-24; SMILES CC[C@H](C)[C@@H]1NC(=O)[C@H](C)NC(=O)[C@H](CCC(=O)O)NC(=O)[C@H]([C@@H](C)CC)NC(=O)[C@H](CCCNC(=N)N)NC(=O)[C@H](CCCCN)NC(=O)[C@H](CCCNC(=N)N)NC(=O)[C@H](CCCCN)NC(=O)[C@H](C(C)C)NC(=O)[C@H](CC(C)C)NC(=O)[C@H](CCC(=O)O)NC(=O)[C@H](CCSC)NC(=O)[C@H](CC(=O)O)NC(=O)[C@H]([C@@H](C)CC)NC(=O)[C@H]([C@@H](C)O)NC(=O)[C@H](CCCCN)NC(=O)[C@H](CO)NC(=O)[C@H]([C@@H](C)O)NC(=O)[C@H](CO)NC(=O)[C@H](CC(C)C)NC(=O)[C@@H](N)CSSC[C@@H](C(=O)O)NC(=O)CNC(=O)[C@H](CCCNC(=N)N)NC1=O) [Compound 10]
migration inhibitory effect [3]: showed the migration inhibitory effect

Substance: H-cyclo(Cys-Val-Leu-Leu-Ser-Arg-Ala-Glu-Leu-Arg-Leu-Leu-Arg-Arg-Leu-Lys-Leu-Lys-Cys)-OH (H-CVLLSRAELRLLRRLKLKC-OH; disulfide 1-19; SMILES CC(C)C[C@@H]1NC(=O)[C@H](CCC(=O)O)NC(=O)[C@H](C)NC(=O)[C@H](CCCNC(=N)N)NC(=O)[C@H](CO)NC(=O)[C@H](CC(C)C)NC(=O)[C@H](CC(C)C)NC(=O)[C@H](C(C)C)NC(=O)[C@@H](N)CSSC[C@@H](C(=O)O)NC(=O)[C@H](CCCCN)NC(=O)[C@H](CC(C)C)NC(=O)[C@H](CCCCN)NC(=O)[C@H](CC(C)C)NC(=O)[C@H](CCCNC(=N)N)NC(=O)[C@H](CCCNC(=N)N)NC(=O)[C@H](CC(C)C)NC(=O)[C@H](CC(C)C)NC(=O)[C@H](CCCNC(=N)N)NC1=O) [Compound 12]
Radioactivity (cpm), n = 4 ([2]; test compound 30 μg/ml, vehicle 163.1 ± 28.3): 2739.9 ± 182.8 cpm | degree of binding of TGF-β to cells ([2]; concentration of 30 μg/ml, BCEC (Table 3)): increased

Source: patent publication US20030027218A1, “PEPTIDES PROMOTING THE ACTIVATION OF LATENT TGF-BETA AND METHOD FOR SCREENING TGF-BETA ACTIVITY REGULATORS” (priority 1997, published 2003)
